From patent US20060073529A1, “Luciferyl peptide substrate” (priority 2004, published 2006)
The star is where a group is joined. aminoluciferin = O=C(O)[C@H]1CSC(c2nc3ccc(N*)cc3s2)=N1

Tests used:
[1] = system: LNCaP, a prostate cancer cell line that produces PSA; assay: in vitro model: PSA-specific substrate on PSA secreting cells (FIG. 7); assay type: cell-based; details: serum-free media
Procedure: The LNCaP cells were incubated for 5 and 19 hours, which represented two time intervals during which the cells were to synthesize PSA, and both cell lines were transfected with SKLQ-aLuc to produce luciferase. […] (“DHT”) was used to investigate its influence on cell growth and PSA production. The cell culture media was serum-free to prevent PSA from forming complexes with various serine-protease inhibitors that are present in the serum.

luciferase [2] = assay: imaging of mice expressing the luc gene after substrate injection; assay type: in vivo, mouse; details: substrate injected, no protease injected
Procedure: In these experiments, injection of the mice with luciferin activates the luciferin-luciferase reaction and the subsequent emission of light, i.e., photons, which can be monitored outside the body using low light imaging systems, based on charge coupled device (“CCD”) cameras.
In FIG. 4A, the pictured mouse was injected with luciferin. […] In FIG. 4B, the mice were injected with the modified substrate N-Ac-Phe-aminoluciferin. […] The mouse pictured on the right was subjected to further injections with chymotrypsin at selected sites. Chymotrypsin is a proteolytic enzyme that can use N-Ac-Phe-aminoluciferin as a substrate.

chymotrypsin [3] = assay: in vivo protease assay: luc mice given substrate plus chymotrypsin injections at selected sites; set-up: species or system mouse; details: mice expressing luc gene, further injections with chymotrypsin at selected sites
Procedure: In FIG. 4A, the pictured mouse was injected with luciferin. […] In FIG. 4B, the mice were injected with the modified substrate N-Ac-Phe-aminoluciferin. […] The dramatic reduction in signal intensity (note scales on images) on the second mouse is due to the lack of freely available substrate for the luciferase reaction. The mouse pictured on the right was subjected to further injections with chymotrypsin at selected sites. Chymotrypsin is a proteolytic enzyme that can use N-Ac-Phe-aminoluciferin as a substrate. […] The freely available aminoluciferin was then catalyzed by luciferase to generate the photons seen in the photograph. […] It can thus be observed that the use of aminoluciferin substrates results in increased versatility for in vivo assays such that protease activity can be assessed in live cells in vivo or in a test tube.
In a one embodiment of the invention, peptide sequences that are conjugated to aminoluciferin are cleaved by the protease chymotrypsin or by chymotrypsin-like proteases, such as, for example, PSA, a clinical marker for prostate cancer.

chymotrypsin [4] = assay: protease assay of FIG. 3, performed in culture; assay type: cell-based
Description: The procedure described in FIG. 2 may be used in in vivo protease assays. Naturally occurring proteases can be used to convert luciferylpeptides to aminoluciferin. These naturally occurring proteases may be associated with a physical state of the body, an organ, tissue, or cells, or may be associated with the location of particular conditions. There, the luciferylpeptide, N-Ac-Phe-aminoluciferin, was synthesized from a solution of 6-amino-2-cyanobenzothiazole, pursuant to the procedure set forth in Monsees et al., supra. […] The aminoluciferin was then available for reaction with luciferase, and in the presence of ATP and O2 in the cells, produced visible light and oxyaminoluciferin. The procedure shown in FIG. 3 was initially performed in culture and subsequently in a transgenic mouse model. This procedure can be modified by adding different compounds to the aminoluciferin, and cleaving the conjugate at the appropriate time and place with specific enzymes.

luciferase [5] = target: luciferase (Photinus pyralis, UniProt P08659); details: in the presence of ATP, Mg2+/O2 and luciferase; cited from earlier work
LNCaP tumor (PSA) = assay: in vivo model: SCID mice bearing subcutaneous LNCaP tumor (FIG. 8); set-up: species or system mouse; details: FIG. 8B
Procedure: The peptides were then tested in severe compromised immune deficiency (SCID) mice that bore an LNCaP tumor implanted at a subcutaneous site. […] The mice were injected with luciferin to localize the tumors and confirm their presence. […] The aminoluciferin released from the cleavage of the peptide by PSA is transported across the LNCaP cell membrane and reacts with luciferase to emit light. Thus, the aminoluciferyl peptide is activated by PSA and consequently can be used to target PSA producing cells in animal models.

Chain of luciferase (Photinus pyralis, UniProt P08659) (P08659 whole entry): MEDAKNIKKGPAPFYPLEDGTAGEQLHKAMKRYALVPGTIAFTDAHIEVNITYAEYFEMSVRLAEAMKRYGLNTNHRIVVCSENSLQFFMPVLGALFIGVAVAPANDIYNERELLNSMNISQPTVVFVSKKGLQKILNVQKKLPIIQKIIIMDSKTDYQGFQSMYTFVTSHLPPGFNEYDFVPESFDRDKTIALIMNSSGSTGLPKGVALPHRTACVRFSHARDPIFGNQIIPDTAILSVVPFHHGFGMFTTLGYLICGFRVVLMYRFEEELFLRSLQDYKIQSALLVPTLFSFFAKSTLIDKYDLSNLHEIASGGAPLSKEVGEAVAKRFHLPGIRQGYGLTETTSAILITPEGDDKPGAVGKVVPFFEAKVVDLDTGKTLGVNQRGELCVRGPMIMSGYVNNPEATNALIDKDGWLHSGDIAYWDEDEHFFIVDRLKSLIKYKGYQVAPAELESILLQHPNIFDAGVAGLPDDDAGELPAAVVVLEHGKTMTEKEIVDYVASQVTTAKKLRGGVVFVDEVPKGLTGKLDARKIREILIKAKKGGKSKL

Compound: C[C@]12CCC(=O)C[C@@H]1CC[C@@H]1[C@@H]2CC[C@]2(C)[C@@H](O)CC[C@@H]12 [DHT, Dihydroxytestosterone]
- influence on PSA levels ([1]; LNCaP/PC3M): does not appear to influence
- influence on cell growth ([1]; LNCaP/PC3M): does not appear to influence

Compound: CC(=O)N[C@@H](Cc1ccccc1)C(=O)Nc1ccc2nc(C3=N[C@@H](C(=O)O)CS3)sc2c1 [N-Ac-Phe-aminoluciferin]
- photon emission from the mouse (luciferase [2]): only isolated regions of the mouse produced low level photon emission
- photon emission from the mouse after protease injection (chymotrypsin [3]): only the sites where the protease enzyme was injected produced detectable signals
- luminescence of the intact luciferylpeptide (chymotrypsin [4]; before addition of chymotrypsin): prevented from luminescing
- cleavage of the luciferylpeptide by the protease (chymotrypsin [4]; upon addition of chymotrypsin): aminoluciferin was cleaved from the luciferylpeptide

Compound: Nc1ccc2nc(C3=N[C@@H](C(=O)O)CS3)sc2c1 [aminoluciferin, D-(−)-2-(6′-amino-2′-benzothiazolyl)-Δ^2-thiazoline-4-carboxylic Acid]
- light generation compared with luciferin (luciferase [5]): generates light to the same extent as does luciferin

Compound: O=C(O)[C@H]1CSC(c2nc3ccc(O)cc3s2)=N1 [luciferin, (D)-(−)-2-(6′-Hydroxy-2′-benzothiazolyl)-2-thiazoline-4-carboxylic acid]
- photon emission from the mouse (luciferase [2]): most of the tissues of this mouse emitted visible light

Compound: Ac-Ser-Lys-Leu-Gln-aLuc (Ac-SKLQ-aminoluciferin; SMILES CC(=O)N[C@@H](CO)C(=O)N[C@@H](CCCCN)C(=O)N[C@@H](CC(C)C)C(=O)N[C@@H](CCC(N)=O)C(=O)Nc1ccc2nc(C3=N[C@@H](C(=O)O)CS3)sc2c1) [SKLQ-aLuc]
- amount of aminoluciferyl peptide detected in the cells versus PSA secreted ([1]; LNCaP incubated 5 and 19 hours, PC3M as non-PSA line): directly proportional to the amount of PSA secreted into the media by the LNCaP cells
- light emission from LNCaP tumors (LNCaP tumor (PSA)): light emission from these tumors
